This is an account of results in patent US12043602B2, “Fendiline derivatives” (The Board of Regents of the University of Texas System, priority 2019, dated 2024).

The target in one data set is mGFP-K-RASG12V (Homo sapiens (Human), UniProt P01116, G12V). Nature of the data set: K-Ras mislocalization assay (confocal microscopy, Manders coefficient). In kind it is cell-based. Further details: key to Emax: Manders coefficient: fraction of mCherry-CAAX co-localizing with GFP-K-Ras. The settings on record: for IC50: 48 h treatment, read-out: IC50 (μM), KRASG12V mislocalization; for Emax: maximal effect, Manders coefficient. Here is the method:
Madine Darby Canine Kidney epithelial cells (MDCK) stably co-expressing mGFP-tagged full length oncogenic mutant K-Ras (GFP—K-RASG12V) or mGFP-LactC2 (peptide probe for phosphatidylserine) and mCherry-tagged to the amino acids 179-189 of H-RasC181S, C184S (mCherry-CAAX, localizes primarily to endomembranes) were grown in DMEM-high glucose/sodium pyruvate/10% FBS. The medium was supplemented with 1× Penicillin/Streptomycin for fluorescence microscopy assays, to avoid any microbial contamination from the test compounds added. KLE and Hec50 cells were maintained in DMEM-F-12 medium supplemented with 10% FBS. Hec-1A and Hec-1B cells were grown in McCoy's 5a medium supplemented with 10% FBS. ESS-1 cells were grown in RPMI 1640 medium supplemented with 20% FBS. MPanc96 cells were grown in DMEM supplemented with 10% FBS, MiaPaCa-2 cells in DMEM supplemented with 10% FBS and 2.5% horse serum and all other cell lines were grown in RPMI 1640 supplemented with 10% FBS. All cancer cell media were supplemented with ×Penicillin/Streptomycin. All cell lines were grown at 37° C. with 5% CO2.
MDCK co-expressing GFP—K-RASG12V or LactC2 and mCherry-CAAX were grown on coverslips, treated with 0.1% vehicle (DMSO) or various concentrations of drugs for 48 h, and fixed with 4% paraformaldehyde. The coverslips were mounted in mowiol and imaged by confocal microscopy (Nikon A1) using a 60× objective. Using ImageJ software v1.42q, images were converted to 8-bit, and a threshold to a control pixel of each image was set. As a measure of K-Ras/LactC2 mislocalization, the fraction of mCherry-CAAX co-localizing with mGFP-K-RASG12V was calculated using a Manders coefficient plugin downloaded from Wright Cell Image Facility. The fraction of mCherry-CAAX co-localizing with mGFP-RASG12V (Mander's coefficient) is proportional to K-Ras mislocalization.

The test system of data set [1] is MDCK cells co-expressing GFP-K-RASG12V and mCherry-CAAX. Nature of the data set: Cytotoxicity in mislocalization screen (death of all cells in well). The note with it: drug caused death of all cells in well at 30 μM.
[2] abbreviates: batch 4 compounds, MDCK cells, 48 h, title calls it IC50, read-out: EC50.

Molecules are shown by their SMILES. Values joined by “and” are separate entries in the source; they are usually repeats but may differ in a detail not shown here. Equal values may be shown once. Read-outs that look alike come from different tables or passages of the source.

`COc1ccc([C@@H](C)N(CC=C(c2ccccc2)c2ccccc2)CCN(C)C)cc1` [NY0435, (R)-N^1-(3,3-diphenylallyl)-N^1-(1-(4-methoxyphenyl)ethyl)-N^2,N^2-dimethylethane-1,2-diamine]: the IC50 (in general, the concentration that gives 50% inhibition) on mGFP-K-RASG12V (MDCK cells, listed as 12a) was determined as 11.2 µM; on mGFP-K-RASG12V (MDCK cells) it was 11.2 µM. Further, the Emax was 0.658 on mGFP-K-RASG12V (MDCK cells, 48 h) and 0.66 ± 0.01 at mGFP-K-RASG12V (MDCK cells, 48 h, listed as 12a). Besides, the “Cytotoxic at 30 μM” value in data set [1] was “Yes”.

Take `COc1ccc([C@H](C)N(CC=C(c2ccccc2)c2ccccc2)CCN2CC2)cc1` [NY0436]: the IC50 at mGFP-K-RASG12V (MDCK cells) was found to be 14 µM. On mGFP-K-RASG12V (MDCK cells, 48 h), this compound had an Emax of 0.716. In data set [1], the “Cytotoxic at 30 μM” value was “No”.

On to `COc1ccc([C@@H](C)N(CC=C(c2ccccc2)c2ccccc2)CCCC=O)cc1` [NY0445, (R)-4-((3,3-diphenylallyl)(1-(4-methoxyphenyl)ethyl)amino)butanal], for which the concentration for half-maximal inhibition (IC50) at mGFP-K-RASG12V (MDCK cells) stood at 2.02 µM. For the same compound, at mGFP-K-RASG12V (MDCK cells, 48 h), the Emax worked out at 0.694. Also, in data set [1], the “Cytotoxic at 30 μM” value was “No”.

In the case of `COc1ccc([C@@H](C)N(CC=C(c2ccccc2)c2ccccc2)CCCCO)cc1` [NY0448, (R)-4-((3,3-diphenylallyl)(1-(4-methoxyphenyl)ethyl)amino)butan-1-ol], the half-inhibitory concentration (IC50) at mGFP-K-RASG12V (MDCK cells) was determined as 12.7 µM. Further, the Emax at mGFP-K-RASG12V (MDCK cells, 48 h) stood at 0.777. The “Cytotoxic at 30 μM” value in data set [1] is reported as “Yes”.

For the compound `COc1ccc([C@@H](C)N(CC=C(c2ccccc2)c2ccccc2)CCCCN2CCN(C)CC2)cc1` [NY0449, (R)-N-(3,3-diphenylallyl)-N-(1-(4-methoxyphenyl)ethyl)-4-(4-methylpiperazin-1-yl)butan-1-amine], the “KRAS PM localization inhibition activity (in words)” value on mGFP-K-RASG12V is “significantly decreased potency”. In addition, the Emax at mGFP-K-RASG12V (MDCK cells, 48 h) came to 0.810; at mGFP-K-RASG12V (MDCK cells, 48 h, listed as 25), 0.81 ± 0.03. Besides, the “Cytotoxic at 30 μM” value in data set [1] is “Yes”.

`COc1cccc([C@@H](C)N(CC=C(c2ccccc2)c2ccccc2)CCN2CCN(C)CC2)c1` [NY0452, (R)-N-(1-(3-methoxyphenyl)ethyl)-N-(2-(4-methylpiperazin-1-yl)ethyl)-3,3-diphenylprop-2-en-1-amine]: the IC50 at mGFP-K-RASG12V (MDCK cells, listed as 15c) turned out to be 2.8 µM; at mGFP-K-RASG12V (MDCK cells), 2.81 µM. Further, the Emax at mGFP-K-RASG12V (MDCK cells, 48 h) is recorded as 0.752; at mGFP-K-RASG12V (MDCK cells, 48 h, listed as 15c), 0.75 ± 0.04. Further, in data set [1], the “Cytotoxic at 30 μM” value is on record as “Yes”.

In the case of `COc1ccc([C@H](C)N(CC=C(c2ccccc2)c2ccccc2)CCN2CCN(C)CC2)cc1` [NY0454, (S)-N-(1-(4-methoxyphenyl)ethyl)-N-(2-(4-methylpiperazin-1-yl)ethyl)-3,3-diphenylprop-2-en-1-amine], the IC50 on mGFP-K-RASG12V (MDCK cells, listed as 15a) came out at 1.2 µM; at mGFP-K-RASG12V (MDCK cells), 1.24 µM. For the same compound, the Emax on mGFP-K-RASG12V (MDCK cells, 48 h) was 0.827; on mGFP-K-RASG12V (MDCK cells, 48 h, listed as 15a), 0.83 and 0.83 ± 0.02. Besides, the “fold potency loss / decreased potency” value at mGFP-K-RASG12V (versus 12f (NY0244)) worked out at 12 fold. In addition, in data set [1], the “Cytotoxic at 30 μM” value is “Yes”.

`COc1ccc([C@@H](C)N(CC=C(c2ccccc2)c2ccccc2)CCCO)cc1` [NY0479, (R)-3-((3,3-diphenylallyl)(1-(4-methoxyphenyl)ethyl)amino)propan-1-ol]: on mGFP-K-RASG12V (setting [2]), the EC50 (commonly the midpoint of the concentration-response curve) is 1590 nM. The compound also returned an Emax on mGFP-K-RASG12V (MDCK cells, 48 h) of 0.871. For the same compound, the “Cytotoxic at 30 μM” value in data set [1] is reported as “No”.

As to `COc1ccc([C@@H](C)N(CC=C(c2ccccc2)c2ccccc2)CCCN2CCCC2)cc1` [NY0502, (R)-N-(1-(4-methoxyphenyl)ethyl)-3,3-diphenyl-N-(3-(pyrrolidin-1-yl)propyl)prop-2-en-1-amine], the concentration for a half-maximal effect (EC50) at mGFP-K-RASG12V (setting [2]) worked out at 1780 nM. On mGFP-K-RASG12V (MDCK cells, 48 h), this compound returned an Emax of 0.878. Besides, in data set [1], the “Cytotoxic at 30 μM” value is reported as “Yes”.

Take `CCNC(=O)N(CC=C(c1ccccc1)c1ccccc1)[C@H](C)c1ccc(OC)cc1` [NY0504, (R)-1-(3,3-diphenylallyl)-3-ethyl-1-(1-(4-methoxyphenyl)ethyl)urea]: the 50% effective concentration (EC50) at mGFP-K-RASG12V (setting [2]) amounted to 910 nM. The compound also gave an Emax at mGFP-K-RASG12V (MDCK cells, 48 h) of 0.845. The “Cytotoxic at 30 μM” value in data set [1] is “No”.

Consider `C[C@H](c1ccc(F)cc1)N(CC=C(c1ccccc1)c1ccccc1)CCN1CCN(C)CC1` [NY0505, (R)-N-(1-(4-fluorophenyl)ethyl)-N-(2-(4-methylpiperazin-1-yl)ethyl)-3,3-diphenylprop-2-en-1-amine], for which the IC50 on mGFP-K-RASG12V (MDCK cells) was 1.5 µM. The EC50 at mGFP-K-RASG12V (setting [2]) was 1510 nM. The Emax on mGFP-K-RASG12V (MDCK cells, 48 h) was found to be 0.832; on mGFP-K-RASG12V (MDCK cells, 48 h, listed as 15e), 0.83 ± 0.02. The “Cytotoxic at 30 μM” value in data set [1] is given as “Yes”.

Consider `CCCCNC(=O)N(CC=C(c1ccccc1)c1ccccc1)[C@H](C)c1ccc(OC)cc1` [NY0507, (R)-3-butyl-1-(3,3-diphenylallyl)-1-(1-(4-methoxyphenyl)ethyl)urea], for which, on mGFP-K-RASG12V (setting [2]), the EC50 is 1690 nM. The Emax at mGFP-K-RASG12V (MDCK cells, 48 h) is recorded as 0.858. Moreover, in data set [1], the “Cytotoxic at 30 μM” value is “No”.

At mGFP-K-RASG12V, `C(CNC1(c2ccccc2)CCCCC1)=C(c1ccccc1)c1ccccc1` [NY0514, N-(3,3-diphenylallyl)-1-phenylcyclohexan-1-amine] gave an EC50 of 1340 nM. The compound further displayed an Emax at mGFP-K-RASG12V (MDCK cells, 48 h) of 0.802. Further, in data set [1], the “Cytotoxic at 30 μM” value is “No”.

Take `C[C@H](c1ccc(Cl)cc1)N(CC=C(c1ccccc1)c1ccccc1)CCN1CCN(C)CC1` [NY0518, (R)-N-(1-(4-chlorophenyl)ethyl)-N-(2-(4-methylpiperazin-1-yl)ethyl)-3,3-diphenylprop-2-en-1-amine]: the IC50 on mGFP-K-RASG12V (MDCK cells) came to 3.8 µM. Moreover, the EC50 on mGFP-K-RASG12V (setting [2]) amounted to 3840 nM. For the same compound, the Emax is 0.695 on mGFP-K-RASG12V (MDCK cells, 48 h) and 0.70 ± 0.02 on mGFP-K-RASG12V (MDCK cells, 48 h, listed as 15f). Moreover, the “Cytotoxic at 30 μM” value in data set [1] is listed as “Yes”.

For `C[C@H](c1ccc(Cl)cc1)N(CC=C(c1ccccc1)c1ccccc1)CCN1CCCC1` [NY0519, (R)-N-(1-(4-chlorophenyl)ethyl)-3,3-diphenyl-N-(2-(pyrrolidin-1-yl)ethyl)prop-2-en-1-amine], the 50% effective concentration (EC50) on mGFP-K-RASG12V (setting [2]) was 4360 nM. For the same compound, the Emax on mGFP-K-RASG12V (MDCK cells, 48 h) was determined as 0.553. Moreover, the “Cytotoxic at 30 μM” value in data set [1] is given as “Yes”.

Consider `COc1ccc([C@@H](C)N(CC=C(c2ccccc2)c2ccccc2)C(=O)NC2CCCCC2)cc1` [NY0521, (R)-3-cyclohexyl-1-(3,3-diphenylallyl)-1-(1-(4-methoxyphenyl)ethyl)urea], for which, on mGFP-K-RASG12V (MDCK cells, 48 h), the Emax is listed as 0.816. In addition, the “Cytotoxic at 30 μM” value in data set [1] was “No”.

With `C[C@H](c1ccc([N+](=O)[O-])cc1)N(CC=C(c1ccccc1)c1ccccc1)CCN1CCN(C)CC1` [NY0522, (R)-N-(2-(4-methylpiperazin-1-yl)ethyl)-N-(1-(4-nitrophenyl)ethyl)-3,3-diphenylprop-2-en-1-amine], the IC50 on mGFP-K-RASG12V (MDCK cells) was 5.2 µM. The EC50 on mGFP-K-RASG12V (setting [2]) was 5170 nM. Moreover, the Emax on mGFP-K-RASG12V (MDCK cells, 48 h) was determined as 0.621; on mGFP-K-RASG12V (MDCK cells, 48 h, listed as 15h) it was 0.62 ± 0.02. In addition, the “Cytotoxic at 30 μM” value in data set [1] is “Yes”.

Regarding `C[C@@H](NCCN1c2ccccc2CCc2ccccc21)c1ccc(F)cc1` [NY0552, (R)-2-(10,11-dihydro-5H-dibenzo[b,f]azepin-5-yl)-N-(1-(4-fluorophenyl)ethyl)ethan-1-amine], on mGFP-K-RASG12V (setting [2]), the EC50 was 4050 nM. Besides, the Emax on mGFP-K-RASG12V (MDCK cells, 48 h) came to 0.426. For the same compound, the “Cytotoxic at 30 μM” value in data set [1] is “No”.

With `C[C@@H](NCCN1c2ccccc2CCc2ccccc21)c1ccccc1` [NY0553, (R)-2-(10,11-dihydro-5H-dibenzo[b,f]azepin-5-yl)-N-(1-phenylethyl)ethan-1-amine], the Emax at mGFP-K-RASG12V (MDCK cells, 48 h) came out at 0.452. The “Cytotoxic at 30 μM” value in data set [1] is reported as “No”.

`COC(=O)[C@@H](c1ccccc1)N(CC=C(c1ccccc1)c1ccccc1)C(=O)NC(C)(C)C` [NY0554, methyl (R)-2-(3-(tert-butyl)-1-(3,3-diphenylallyl)ureido)-2-phenylacetate]: the EC50 on mGFP-K-RASG12V (setting [2]) turned out to be 1200 nM. At mGFP-K-RASG12V (MDCK cells, 48 h), this compound registered an Emax of 0.327. In data set [1], the “Cytotoxic at 30 μM” value is recorded as “Yes (even”.

As to `O=C(O)[C@H](NCC=C(c1ccccc1)c1ccccc1)c1ccccc1` [NY0555, (R)-2-((3,3-diphenylallyl)amino)-2-phenylacetic acid], the EC50 on mGFP-K-RASG12V (setting [2]) came to 4370 nM. This compound registered an Emax at mGFP-K-RASG12V (MDCK cells, 48 h) of 0.332. In data set [1], the “Cytotoxic at 30 μM” value is reported as “No”.
